This note sets out measurements from patent US10674732B2, “Anti-phytopathogenic compositions” (The State of Israel, Ministry Of Agriculture & Rural …, priority 2015, dated 2020).

≈ marks a conversion by molar mass, not a printed value.

The subject of one assay is Spiroplasma melliferum. The experiment in a line: Microplate test of spiroplasma growth (OD=595 nm). The assay is classed as cell-based. To be noted: 1 mM, single compound. The method, then: For this reason, the potential inhibition of these substances was tested on Spiroplasma melliferum, a cultivable Mollicute. The experiment was conducted in a 96-wells microplate. 150 μl fresh broth containing phenol red and 4 μl spiroplasma cells (app. 10^5 cells) were added to each well. […] The microplate was incubated for two days at 28° C. and the color of the medium was scored by a plate-reader (Multiskan EX, Thermo scientific, Waltham, Mass. USA) at OD=595 nm.
Take `c1cc2cnccn2c1` [Pyrrolo[1,2-a]pyrazine]: the spiroplasma growth inhibition result is listed as “at 2 mM only”. Regarding `O=Cc1ccnc2ccccc12` [Quinolinecarboxaldehyde, 4-Quinolinecarboxaldehyde], the spiroplasma growth inhibition result was “inhibited”.

Staying with this assay, now noted: 2 mM, single compound.
Regarding `c1cc2cnccn2c1` [Pyrrolo[1,2-a]pyrazine], the spiroplasma growth inhibition result is “inhibit”. Consider `O=Cc1ccnc2ccccc12` [Quinolinecarboxaldehyde, 4-Quinolinecarboxaldehyde], for which the spiroplasma growth inhibition entry is recorded as “inhibited”.

The same assay, now with this note: Spiroplasma melliferum, 48 h; two days at 28° C., FIG. 9; read-out: minimum inhibitory concentration (MIC).
Regarding `CN(C)[C@@H]1C(O)=C(C(N)=O)C(=O)[C@@]2(O)C(O)=C3C(=O)c4c(O)cccc4[C@@](C)(O)[C@H]3[C@H](O)[C@@H]12` [oxytetracycline], the MIC was found to be 350 µM (≈ 161 µg/mL).

The same assay, now with this note: concentrations examined (2-0.02 mM), single compound.
With `O=Cc1ccc(CO)o1` [Hydroxymethyl-2-furaldehyde, 5-Hydroxymethyl-2-furaldehyde], the spiroplasma growth inhibition result is “No inhibition”.

The assay is the same for the next values; noted with them: two days at 28° C.
As for `O=Cc1ccnc2ccccc12` [Quinolinecarboxaldehyde, 4-Quinolinecarboxaldehyde], the “minimum inhibitory concentration (MIC) compared with reference oxytetracycline” value was “higher than the reference antibiotics”.

In a further assay the test system is Spiroplasma melliferum. The experiment in a line: Antagonistic test of the bacteria's supernatant (time to color change of phenol red medium). To be noted: 0.5 μg/ml.
On to `CN(C)[C@@H]1C(O)=C(C(N)=O)C(=O)[C@@]2(O)C(O)=C3C(=O)c4c(O)cccc4[C@@](C)(O)[C@H]3[C@H](O)[C@@H]12` [oxytetracycline], for which the “Inhibition index (ratio of days to color change to the time required in the positive control)” value was determined as 2.3.

The next assay has as its system spiroplasma. In words: Antagonistic test of the bacteria's specific compounds (synthetic compounds on spiroplasma in vitro). Type of assay: cell-based, Spiroplasma melliferum. To be noted: 1 milimolar, three days at 29° C. Here is the method:
After potential inhibitory compounds (4-Quinolinecarboxaldehyde and 5-Hydroxymethyl-2-furaldehyde) were identified in the active fraction extracts of the bacteria's supernatant, parallel synthetic compound were purchased (Sigma) and examined on spiroplasma in vitro: 1 ml of spiroplasma medium, 10 μl spiroplasma cells and 10 μl of each compound (final concentration of 1 milimolar) were incubated for three days at 29° C. […] Changes in the indicator color from red to yellow indicated spiroplasma growth.
For `O=Cc1ccc(CO)o1` [Hydroxymethyl-2-furaldehyde, 5-Hydroxymethyl-2-furaldehyde], the spiroplasma growth inhibition entry is reported as “no inhibition”. With `O=Cc1ccnc2ccccc12` [Quinolinecarboxaldehyde, 4-Quinolinecarboxaldehyde], the spiroplasma growth inhibition result is recorded as “able to inhibit”.

The subject of the next assay is DLB. In words: DLB antibiotic susceptibility test. Type of assay: cell-based, Dyella-like bacterium.
Details: not given
Take `NCC[C@H](O)C(=O)N[C@@H]1C[C@H](N)[C@@H](O[C@H]2O[C@H](CN)[C@@H](O)[C@H](O)[C@H]2O)[C@H](O)[C@H]1O[C@H]1O[C@H](CO)[C@@H](O)[C@H](N)[C@H]1O` [amikacin]: the Inhibition cycle diameter is 10 mm. Take `CC1(C)S[C@@H]2[C@H](NC(=O)[C@H](N)c3ccc(O)cc3)C(=O)N2[C@H]1C(=O)O` [amoxycillin]: the Inhibition cycle diameter is 10 mm. With `CC1(C)S[C@@H]2[C@H](NC(=O)[C@H](N)c3ccccc3)C(=O)N2[C@H]1C(=O)O` [ampicilin A], the Inhibition cycle diameter came to 10 mm.

For `C[C@H]1[C@H](NC(=O)/C(=N\OC(C)(C)C(=O)O)c2csc(N)n2)C(=O)N1S(=O)(=O)O` [aztreonam], the Inhibition cycle diameter is given as 1 mm and the “resistance of the bacterium to the antibiotic” value (shortened to “resistance of the bacterium”) is “resistant”. On to `CC1(C)S[C@@H]2[C@H](NC(=O)C(C(=O)O)c3ccccc3)C(=O)N2[C@H]1C(=O)O` (stereo partly shown) [carbencillin], for which the Inhibition cycle diameter was found to be 10 mm. Take `CO/N=C(\C(=O)N[C@@H]1C(=O)N2C(C(=O)[O-])=C(C[N+]3(C)CCCC3)CS[C@H]12)c1csc(N)n1` [cefeprime]: the Inhibition cycle diameter came out at 1 mm and the “resistance of the bacterium” value is “resistant”. `CO/N=C(\C(=O)N[C@@H]1C(=O)N2C(C(=O)O)=C(CSc3nc(=O)c(=O)[nH]n3C)CS[C@H]12)c1csc(N)n1` [ceftriaxone] showed an Inhibition cycle diameter of 10 mm.

Consider `CO/N=C(\C(=O)N[C@@H]1C(=O)N2C(C(=O)O)=C(COC(N)=O)CS[C@H]12)c1ccco1` [cefuroxime], for which the Inhibition cycle diameter came to 1 mm and the “resistance of the bacterium” value is “resistant”. In the case of `CC(=O)OCC1=C(C(=O)O)N2C(=O)[C@@H](NC(=O)Cc3cccs3)[C@H]2SC1` [cephalothin], the Inhibition cycle diameter is listed as 2 mm and the “resistance of the bacterium” value is “resistant”. `O=C(N[C@H](CO)[C@H](O)c1ccc([N+](=O)[O-])cc1)C(Cl)Cl` [chloramphenicol] showed an Inhibition cycle diameter of 10 mm. Regarding `O=C(O)c1cn(C2CC2)c2cc(N3CCNCC3)c(F)cc2c1=O` [ciprofloxacin], the Inhibition cycle diameter stood at 2 mm and the “resistance of the bacterium” value is listed as “resistant”. Take `C[C@@H](O)[C@H]1C(=O)N2C(C(=O)O)=C(SCCN=CN)C[C@H]12` [imipenem]: the Inhibition cycle diameter is listed as 2-3 mm.

In the case of `NC[C@H]1O[C@H](O[C@H]2[C@H](O)[C@@H](O[C@H]3O[C@H](CO)[C@@H](O)[C@H](N)[C@H]3O)[C@H](N)C[C@@H]2N)[C@H](O)[C@@H](O)[C@@H]1O` [kanamycin], the Inhibition cycle diameter turned out to be 10 mm. In the case of `C[C@@H](O)[C@H]1C(=O)N2C(C(=O)O)=C(S[C@@H]3CN[C@H](C(=O)N(C)C)C3)[C@H](C)[C@H]12` [meropenem], the Inhibition cycle diameter amounted to 1 mm and the “resistance of the bacterium” value is given as “resistant”. The corresponding values for `CCn1cc(C(=O)O)c(=O)c2ccc(C)nc21` [nalidixic acid] are 1 mm and “resistant”. Regarding `O=C1CN(/N=C/c2ccc([N+](=O)[O-])o2)C(=O)N1` [nitrofuration], the Inhibition cycle diameter was 2 mm and the “resistance of the bacterium” value is “resistant”.

With `CCn1cc(C(=O)O)c(=O)c2cc(F)c(N3CCNCC3)cc21` [norfloxacin], the Inhibition cycle diameter is on record as 2 mm and the “resistance of the bacterium” value is listed as “resistant”.

With `CCN1CCN(C(=O)N[C@@H](C(=O)N[C@@H]2C(=O)N3[C@@H]2SC(C)(C)[C@@H]3C(=O)O)c2ccccc2)C(=O)C1=O` [piperacillin], the Inhibition cycle diameter is on record as 10 mm. `[H]/N=C(/N)N[C@H]1[C@H](O)[C@@H](O)[C@H](O[C@@H]2O[C@@H](C)[C@](O)(C=O)[C@H]2O[C@@H]2O[C@@H](CO)[C@H](O)[C@@H](O)[C@@H]2NC)[C@@H](N/C(N)=N\[H])[C@@H]1O` [streptomycin] gave an Inhibition cycle diameter of 10 mm. In the case of `Cc1cc(NS(=O)(=O)c2ccc(N)cc2)no1` [sulphamethoxazole], the Inhibition cycle diameter is 10 mm. Turning to `CN(C)[C@@H]1C(O)=C(C(N)=O)C(=O)[C@@]2(O)C(O)=C3C(=O)c4c(O)cccc4[C@@](C)(O)[C@H]3C[C@@H]12` [tetracycline], the Inhibition cycle diameter worked out at 10 mm. `CC1(C)S[C@@H]2[C@H](NC(=O)[C@H](C(=O)O)c3ccsc3)C(=O)N2[C@H]1C(=O)O` [ticarcillin]: the Inhibition cycle diameter is 10 mm. In turn, `NC[C@H]1O[C@H](O[C@H]2[C@H](O)[C@@H](O[C@H]3O[C@H](CO)[C@@H](O)[C@H](N)[C@H]3O)[C@H](N)C[C@@H]2N)[C@H](N)C[C@@H]1O` [tobaramycin] came in with an Inhibition cycle diameter of 10 mm. In turn, `COc1cc(Cc2cnc(N)nc2N)cc(OC)c1OC` [trimethoprime] displayed an Inhibition cycle diameter of 10 mm. `CN[C@H](CC(C)C)C(=O)N[C@H]1C(=O)N[C@@H](CC(N)=O)C(=O)N[C@H]2C(=O)N[C@H]3C(=O)N[C@H](C(=O)N[C@H](C(=O)O)c4cc(O)cc(O)c4-c4cc3ccc4O)[C@H](O)c3ccc(c(Cl)c3)Oc3cc2cc(c3O[C@@H]2O[C@H](CO)[C@@H](O)[C@H](O)[C@H]2O[C@H]2C[C@](C)(N)[C@H](O)[C@H](C)O2)Oc2ccc(cc2Cl)[C@H]1O` [vancomycin] yielded an Inhibition cycle diameter of 10 mm.

On to colistinsulfate, for which the Inhibition cycle diameter is on record as 2-3 mm and the “resistance of the bacterium” value is reported as “resistant”. The molecule gentanicin G displayed an Inhibition cycle diameter of 10 mm. Take neomycin: the Inhibition cycle diameter stood at 10 mm. On to polymyxin-B, for which the Inhibition cycle diameter is 10 mm.
